Assay results: US6214846A, “Substituted 3-(benzylamino)piperidine derivatives and their use as therapeutic agents” (Merck Sharp & Dohme Limited, priority 1997, dated 2001)
Structures can show the parent of a compound that is named as a salt.

Biological target: human NK1 receptor (Homo sapiens, UniProt P25103)
Experiment: IC50 at the human NK1 receptor (methods of pages 36 to 39 of WO 93/01165)
Format: binding
Details: test method of WO 93/01165
Experimental: The exemplified compounds of this invention were tested by the methods set out at pages 36 to 39 of International Patent Specification No. WO 93/01165.

human NK1 receptor, sequence (P25103 whole entry): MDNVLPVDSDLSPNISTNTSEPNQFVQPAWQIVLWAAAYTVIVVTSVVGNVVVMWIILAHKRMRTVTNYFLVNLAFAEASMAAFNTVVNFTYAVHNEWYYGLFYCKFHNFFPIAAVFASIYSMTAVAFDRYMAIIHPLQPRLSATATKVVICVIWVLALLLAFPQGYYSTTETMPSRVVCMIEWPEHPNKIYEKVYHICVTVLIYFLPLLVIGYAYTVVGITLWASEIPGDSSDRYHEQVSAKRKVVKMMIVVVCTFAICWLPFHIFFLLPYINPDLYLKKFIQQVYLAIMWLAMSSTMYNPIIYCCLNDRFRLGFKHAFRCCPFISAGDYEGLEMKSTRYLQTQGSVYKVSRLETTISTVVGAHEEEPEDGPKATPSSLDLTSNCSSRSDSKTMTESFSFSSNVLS

IC50 [nM]	SMILES
0.17	FC(F)(F)Oc1ccc(OC2CC2)c(CN[C@H]2CCCN[C@H]2c2ccccc2)c1 (relative stereo) [Example 1, (±)-(2R3R,2S3S)-N-{[2-Cyclopropoxy-5-(trifluoromethoxy)phenyl]methyl}-2-phenylpiperidin-3-amine Dihydrochloride]
0.2	Fc1ccc([C@@H]2NCCC[C@@H]2NCc2cc(OC(F)(F)F)ccc2OC2CC2)cc1 (relative stereo) [Example 3, (±)-(2R3R,2S3S)-N-{[2-Cyclopropoxy-5-(trifluoromethoxy)phenyl]methyl}-2-(4-fluorophenyl)piperidin-3-amine Dihydrochloride]
